Each structure is given as a SMILES string. In brackets after ≈: the same amount, converted by molar mass.

For one assay, the target named is T1, MRSA Pyk (Staphylococcus aureus, UniProt Q6GG09).
T1 construct: made in house; host or cells: E. coli BL-21 (DE3)
Nature of the assay: MRSA pyruvate kinase (PK) activity, continuous LDH-coupled assay. The format is biochemical, methicillin resistant S. aureus (MRSA252). The essentials: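 His-tagged MRSA PK (strain Sanger 252) and human PK isoforms expressed in E. coli BL-21 (DE3) and Ni-NTA purified, used at 15 nM in an LDH-coupled assay following NADH oxidation at 340 nm, 30° C, up to 5 min, ≤1% DMSO. IC50 from four-parameter variable-slope fit; Ki with PEP 2-20 mM, ADP fixed 2 mM, inhibitor 0-400 nM.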

The next assay has as its system S. aureus (ATCC29213). Nature of the assay: In vitro susceptibility, broth microdilution (MIC). Type of assay: cell-based. Particulars: Staphylococcus aureus; S. aureus ATCC29213; 18-24 h, 37 C; read-out: Antimicrobial activity (MIC) S. aureus ATCC29213. The essentials:
(§1)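 CLSI 2-fold serial broth microdilution; K. pneumoniae C238 grown in L-broth, S. aureus ATCC 29213 in Mueller Hinton broth, plates incubated 18–24 h at 37 °C. MIC taken as lowest concentration giving complete growth inhibition by OD600 versus compound-free wells, background-subtracted.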
A general note: In broth dilution the organism is exposed to a series of concentrations in liquid medium.

Another assay relates to K. pneumoniae (C238). As to the kind of experiment: In vitro susceptibility, broth microdilution (MIC). Type of assay: cell-based. Conditions: Klebsiella pneumoniae; K. pneumoniae (C238); read-out: Antimicrobial activity (MIC) K. pneumoniae. In a few lines: as §1
The test system of another assay is VRE#2 (2010A). Nature of the assay: In vitro susceptibility, broth microdilution (MIC). Type of assay: cell-based, vancomycin resistant Enterococci. Particulars: VRE#2 (2010A); read-out: Antimicrobial activity (MIC) VRE#2. The text has this:
(§2) Epidemic methicillin resistant S. aureus (MRSA) strain sequenced at the Sanger Centre (MRSA252, NRS71) was obtained from NARSA (Network on Antimicrobial Resistance in S. aureus). Methicillin sensitive S. aureus (ATCC 29213 and 25923), methicillin resistant S. aureus (ATCC BAA-1762), and Salmonella typhimurium (ATCC BAA-185) were obtained from ATCC, The Global Bioresource Center. Acinetobacter baumannii (ATCC 19606 and ATCC 17978), Klebsiella pneumonia (C238), vancomycin resistant Enterococci #2 (2010A) (VRE#2), MRSA (USA400, MW2) and Pseudomonas aeruginosa (PA0-1) were obtained from the laboratory of Dr B. B. Finlay at the University of British Columbia (Vancouver, Canada).
(§3) The antimicrobial activities of PK inhibitor candidates were determined using the 96-well microtiter standard 2-fold serial broth microdilution method as described by CLSI (formerly NCCLS) with the various gram-positive and gram-negative bacteria species mentioned above. Bacteria from a single colony were grown, overnight in either BHI Broth (VRE), mueller hinton broth (S. aureus 29213; MRSA USA400, A. baumannii 19606, MRSA BAA-1762) or L-broth (P. aeruginosa, S. typhimurium, K. pneumonia and A. baumannii 17978). Each compound was prepared in DMSO with 2-fold serial dilutions to give a final concentration of, 0.031 to 64 μg/ml. 10 μl of the compound solution was then added, in duplicate, to either, 190 μl of cation adjusted mueller hinton broth (CAMHB) or 190 μl CAMHB containing ˜2.5×10^5 CFU/ml of bacteria (final compound concentration 0.031 to 64 μg/ml). Culture plates were incubated for 18-24 h at 37° C., and optical density at 600 nm (OD600) was measured using a Benchmark Plus™ microplate spectrophotometer (Bio-Rad™). The absorbance control values for the series containing CAMHB and inhibitor were subtracted as background from the corresponding infected wells. Minimal inhibitory concentration (MIC) was defined as the lowest concentration of test compound leading to complete inhibition of cell growth in relation to compound-free control wells as determined by optical density. Vancomycin, methicillin and ciprofloxicin were used as reference compounds. All assays were run in triplicate or duplicate. Experiments were replicated at least twice to verify reproducibility using the above conditions.

Assay [1] relates to A. baumannii (ATCC 19606). Nature of the assay: In vitro susceptibility, broth microdilution (MIC). The format is cell-based. Conditions: Acinetobacter baumannii, ATCC19606; A. baumannii ATCC 19606 (values without asterisk); read-out: Antimicrobial activity (MIC) A. baumannii.
From the text: as §2, §3

In a further assay the test system is MRSA (ATCC BAA-1762). As to the kind of experiment: In vitro susceptibility, broth microdilution (MIC). The format is cell-based, methicillin resistant S. aureus. Particulars: Staphylococcus aureus; MRSA ATCC BAA-1762; read-out: Antimicrobial activity (MIC) MRSA ATCC BAA1762.
From the text: as §2, §3

T1 sequence (Q6GG09 whole entry): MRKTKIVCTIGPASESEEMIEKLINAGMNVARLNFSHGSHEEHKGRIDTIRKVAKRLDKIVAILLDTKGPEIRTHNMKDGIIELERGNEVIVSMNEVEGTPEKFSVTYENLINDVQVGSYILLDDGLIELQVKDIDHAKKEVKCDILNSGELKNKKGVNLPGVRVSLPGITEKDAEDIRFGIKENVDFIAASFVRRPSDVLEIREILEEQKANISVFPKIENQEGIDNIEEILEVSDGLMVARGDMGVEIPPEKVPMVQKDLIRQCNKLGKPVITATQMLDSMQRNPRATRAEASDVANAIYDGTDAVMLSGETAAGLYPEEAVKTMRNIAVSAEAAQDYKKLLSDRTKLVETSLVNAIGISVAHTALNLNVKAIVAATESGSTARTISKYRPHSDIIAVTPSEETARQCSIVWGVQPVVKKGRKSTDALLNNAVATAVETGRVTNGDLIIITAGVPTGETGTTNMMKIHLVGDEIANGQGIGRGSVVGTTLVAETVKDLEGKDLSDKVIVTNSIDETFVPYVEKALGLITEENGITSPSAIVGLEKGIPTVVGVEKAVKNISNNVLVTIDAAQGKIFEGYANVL

The IC50 is the concentration at which inhibition is half-maximal. Lower therefore signals inhibition by little substance. For orientation: MIC means the lowest concentration found to suppress growth. The molecule `O=C(NCCCCN1CCOCC1)c1c(/C=C/c2ccc(Cl)cc2)[nH]c2cc(Br)ccc12` [Compound 45, (E)-6-Bromo-2-(4-chlorostyryl)-N-(4-morpholinobutyl)-1H-indole-3-carboxamide] displayed an IC50 against MRSA Pyk of less than 100 nM. Moreover, the MIC was more than 64 µg/mL with S. aureus (ATCC29213) and 32 µg/mL (≈ 61.9 µM) in the assay on K. pneumoniae (C238).
The like results for `O=C(NCCc1ccccn1)C(=O)c1c(/C=C/c2ccc(Cl)cc2)[nH]c2cc(Br)ccc12` [Compound 88, (E)-2-(6-bromo-2-(4-chlorostyryl)-1H-indol-3-yl)-2-oxo-N-(2-(pyridin-2-yl)ethyl)acetamide] were, in that order, 100 to 1000 nM, more than 64 µg/mL and more than 64 µg/mL.
The like results for `CNC(=O)C(=O)c1c(CCc2ccc(Cl)cc2)[nH]c2cc(Br)ccc12` [Compound 89, 2-(6-bromo-2-(4-chlorophenethyl)-1H-indol-3-yl)-N-methyl-2-oxoacetamide] were, in that order, more than 1000 nM, more than 64 µg/mL and more than 64 µg/mL.
The like results for `CNC(=O)C(O)c1c(/C=C/c2ccc(Cl)cc2)[nH]c2cc(Br)ccc12` (centres unmarked) [Compound 90, (E)-2-(6-bromo-2-(4-chlorostyryl)-1H-indol-3-yl)-2-hydroxy-N-methylacetamide] were, in that order, 100 to 1000 nM, more than 64 µg/mL and more than 64 µg/mL.
At MRSA Pyk, `CN(Cc1ccccc1)c1c(CCc2ccc(Cl)cc2)[nH]c2cc(Br)ccc12` [Compound 98, N-benzyl-6-bromo-2-(4-chlorophenethyl)-N-methyl-1H-indol-3-amine] registered an IC50 of 100 to 1000 nM. Besides, the MIC with S. aureus (ATCC29213) is 32 µg/mL (≈ 70.5 µM); with K. pneumoniae (C238), more than 64 µg/mL.
As for `O=C(Nc1ccccc1)Nc1nc2ccc(Br)cc2s1` [Compound 100, 1-(6-bromobenzo[d]thiazol-2-yl)-3-phenylurea], the MIC in the assay with S. aureus (ATCC29213) and in the assay with K. pneumoniae (C238) was more than 64 µg/mL throughout.
Molecule `COCCNC(=O)CCCC(=O)c1c(-c2cc3cc(Cl)ccc3[nH]2)[nH]c2cc(Br)ccc12` [Compound 103, 5-(6-bromo-5′-chloro-1H,1′H-[2,2′-biindol]-3-yl)-N-(2-methoxyethyl)-5-oxopentanamide] displayed an IC50 on MRSA Pyk of less than 100 nM. For the same molecule, the MIC in the assay with S. aureus (ATCC29213) and in the assay with K. pneumoniae (C238) was more than 64 µg/mL in each case.
In turn, `O=C(CCCC(=O)c1c(-c2cc3cc(Cl)ccc3[nH]2)[nH]c2cc(Br)ccc12)NCCO` [Compound 104, 5-(6-bromo-5′-chloro-1H,1′H-[2,2′-biindol]-3-yl)-N-(2-hydroxyethyl)-5-oxopentanamide] showed an IC50 against MRSA Pyk of less than 100 nM. In addition, the MIC with S. aureus (ATCC29213) and with K. pneumoniae (C238) was more than 64 µg/mL each time.
`O=C(CCCC(=O)c1c(-c2cc3cc(Cl)ccc3[nH]2)[nH]c2cc(Br)ccc12)Nc1ncn[nH]1` [Compound 105, 5-(6-bromo-5′-chloro-1H,1′H-[2,2′-biindol]-3-yl)-5-oxo-N-(1H-1,2,4-triazol-5-yl)pentanamide]: the IC50 on MRSA Pyk was less than 100 nM. For the same molecule, the MIC in the assay on S. aureus (ATCC29213) and in the assay with K. pneumoniae (C238) was more than 64 µg/mL throughout.
As to `O=C(Cc1ccc(Cl)cc1)Nc1nc2ccc(Br)cc2s1` [Compound 109, N-(6-bromobenzo[d]thiazol-2-yl)-2-(4-chlorophenyl)acetamide], the MIC in the assay with S. aureus (ATCC29213) and in the assay with K. pneumoniae (C238) was more than 64 µg/mL in each case.
In the case of `CN(C)CCn1c(-c2ccc(Cl)cc2)nc2[nH]c3cc(Br)ccc3c2c1=O` [Compound 111, 7-bromo-2-(4-chlorophenyl)-3-(2-(dimethylamino)ethyl)-3H-pyrimido[4,5-b]indol-4(9H)-one], the MIC in the assay with S. aureus (ATCC29213) and in the assay on K. pneumoniae (C238) was more than 64 µg/mL each time.
Molecule `Cc1nc2c(cc1-c1ccc(Cl)cc1)[nH]c1cc(Br)ccc12` [Compound 113, 7-bromo-3-(4-chlorophenyl)-2-methyl-5H-pyrido[3,2-b]indole] returned an IC50 against MRSA Pyk of less than 100 nM. Also, the MIC with S. aureus (ATCC29213) and in the assay on K. pneumoniae (C238) was more than 64 µg/mL in each case.
In the case of `FC(F)(F)c1ccc2sc(/C=C/c3ccc(Cl)cc3)nc2c1` [Compound 115, (E)-2-(4-chlorostyryl)-5-(trifluoromethyl)benzo[d]thiazole], the MIC with S. aureus (ATCC29213) and in the assay with K. pneumoniae (C238) was more than 64 µg/mL in each case.
For the molecule `NC(=O)N1CCCN(CCNC(=O)c2c(-c3cc4cc(Cl)ccc4[nH]3)[nH]c3cc(Br)ccc23)CC1` [Compound 128, 6-bromo-N-(2-(4-carbamoyl-1,4-diazepan-1-yl)ethyl)-5′-chloro-1H,1′H-2,2′-biindole-3-carboxamide], the MIC (in the assay with S. aureus (ATCC29213); in the assay on VRE#2 (2010A); in assay [1]) was more than 64 µg/mL throughout.
Take `COc1cc2[nH]c(-c3cc4ccc(Br)cc4[nH]3)cc2cc1Cl` [Compound 140, 6′-Bromo-5-chloro-6-methoxy-1H,1′H-2,2′-biindole]: the MIC in the assay with S. aureus (ATCC29213) and in the assay on K. pneumoniae (C238) was more than 64 µg/mL each time.
With `O=C(Nc1nc2cc(Br)ccc2s1)NC1CCCCC1` [Compound 159, 1-(5-bromobenzo[d]thiazol-2-yl)-3-cyclohexylurea], the MIC was 1 µg/mL (≈ 2.82 µM) in the assay with MRSA (ATCC BAA-1762), 2 µg/mL (≈ 5.65 µM) with S. aureus (ATCC29213) and more than 64 µg/mL in assay [1].
Turning to `Nc1ccc(NC(=O)Nc2nc3cc(Br)ccc3s2)cc1` [Compound 160, 1-(4-aminophenyl)-3-(5-bromobenzo[d]thiazol-2-yl)urea], the MIC is 4 µg/mL (≈ 11 µM) in the assay with MRSA (ATCC BAA-1762), 4 µg/mL (≈ 11 µM) with S. aureus (ATCC29213), 8 µg/mL (≈ 22 µM) in the assay with VRE#2 (2010A) and more than 64 µg/mL in assay [1].
Consider `CN(C)CC(=O)Nc1ccc(NC(=O)Nc2nc3cc(Br)ccc3s2)cc1` [Compound 161, N-(4-(3-(5-bromobenzo[d]thiazol-2-yl)ureido)phenyl)-2-(dimethylamino)acetamide], for which the MIC in the assay on MRSA (ATCC BAA-1762) was 8 µg/mL (≈ 17.8 µM); in the assay on S. aureus (ATCC29213), 16 µg/mL (≈ 35.7 µM); in the assay on VRE#2 (2010A), 16 µg/mL (≈ 35.7 µM); in assay [1], more than 64 µg/mL.
`O=C(Nc1ccc(Cl)cc1)Nc1nc2cc(F)ccc2s1` [Compound 166, 1-(4-chlorophenyl)-3-(5-fluorobenzo[d]thiazol-2-yl)urea]: the MIC in the assay on MRSA (ATCC BAA-1762) is 0.5 µg/mL (≈ 1.55 µM); in the assay with S. aureus (ATCC29213), 1 µg/mL (≈ 3.11 µM); with VRE#2 (2010A), 0.5 µg/mL (≈ 1.55 µM); in assay [1] it was more than 64 µg/mL.
Consider `O=C(Nc1ccc(Cl)cc1)Nc1nc2cc(Oc3ccccc3)ccc2s1` [Compound 168, 1-(4-chlorophenyl)-3-(5-phenoxybenzo[d]thiazol-2-yl)urea], for which the MIC in the assay on MRSA (ATCC BAA-1762) was 1 µg/mL (≈ 2.53 µM); in the assay with S. aureus (ATCC29213) it was 1 µg/mL (≈ 2.53 µM); in the assay with VRE#2 (2010A), 16 µg/mL (≈ 40.4 µM); in assay [1], more than 64 µg/mL.
As to `O=C(Nc1ccc(Cl)cc1)Nc1nc2cc(C(F)(F)F)ccc2s1` [Compound 169, 1-(4-chlorophenyl)-3-(5-(trifluoromethyl)benzo[d]thiazol-2-yl)urea], the MIC was 0.5 µg/mL (≈ 1.34 µM) in the assay with MRSA (ATCC BAA-1762), 1 µg/mL (≈ 2.69 µM) with S. aureus (ATCC29213), 2 µg/mL (≈ 5.38 µM) with VRE#2 (2010A) and more than 64 µg/mL in assay [1].
Consider `CC(C)(C)NCCNC(=O)COc1cc2[nH]c(-c3cc4ccc(Br)cc4[nH]3)cc2cc1Cl` [Compound 193, 2-((6′-Bromo-5-chloro-1H,1′H-[2,2′-biindol]-6-yl)oxy)-N-(2-(tert-butylamino)ethyl)acetamide], for which the IC50 at MRSA Pyk was less than 100 nM. Further, the MIC (with S. aureus (ATCC29213); in assay [1]) was more than 64 µg/mL each time.
In the case of `NC(=O)Cn1c(-c2cc3ccc(Br)cc3[nH]2)nc2cc(Cl)c(Cl)cc21` [Compound 215, 2-(2-(6-Bromo-1H-indol-2-yl)-5,6-dichloro-1H-benzo[d]imidazol-1-yl)acetamide], the MIC (in the assay with S. aureus (ATCC29213); in assay [1]) was more than 64 µg/mL each time.

Source of the values: patent publication US20180312493A1, “Antibiotic Compounds, Pharmaceutical Formulations Thereof And Methods And Uses Therefor” (Simon Fraser University, priority 2015, published 2018).
